{"source": "patent US20120107428A1", "about": "“REPELLENTS FOR PESTIFEROUS SOCIAL WASPS” (Sterling International Inc., priority 2010, published 2012)", "key": {"[1]": {"test_system": "worker antennae of Vespula pensylvanica, Dolichovespula maculata, Polistes dominulus, and P. aurifer", "experiment": "GC-EAD/MS analysis of SPME headspace samples of essential oils: antennal responses", "conditions": "for antennal (EAD) response to component of lemongrass oil: antennae of V. pensylvanica, D. maculata, and Polistes dominulus, FIG. 2", "method": "Headspace volatiles from greater than 10 types of essential oils (1 ml each in a closed 20 ml glass vial) were sampled via Solid-Phase Micro-Extraction (SPME) (CAR/PDMS, 85 μm, Supelco, Bellefonte, Pa.) for 20-30 sec before GC-EAD and GC-MS analyses.\nPaper wasp [European paper wasp (Polistes dominulus) or golden paper wasp (P. aurifer)] and yellowjacket [Western yellowjacket (Vespula pensylvanica) or Bald-faced hornet (Dolichovespula maculata)] workers for electrophysiological study were collected from their nests and kept alive at 4° C. before testing.\nSPME samples of the various essential oils were injected splitless into a Varian CP-3800 GC equipped with a polar column (HP-INNOWAX; 30 m×0.53 mm×1.0 μm film thickness; Agilent Technologies, Wilmington, Del., USA) and a 1:1 effluent splitter that allowed simultaneous flame ionization detection (FID) and electroantennographic detection (EAD) of either a yellowjacket or paper wasp worker antenna to the separated volatile compounds. Helium was used as the carrier gas, and the injector and detector temperatures were 250° C. and 300° C., respectively. Column temperature was 50° C. for 1 min, rising to 240° C. at 10° C./min, and then held for 10 min. The outlet for the EAD was held in a humidified air stream flowing at 0.5 m/sec over the antennal preparation. EAD recordings were made using silver wire-glass capillary electrodes filled with Beadle-Ephrussi Ringer on freshly cut antennae. The antennal signals were stored and analyzed on a PC equipped with a serial IDAC interface box and the program EAD ver. 2.5 (Syntech, Hilversum, The Netherlands).\nCompounds were identified by comparison of retention times with those of authentic standards and with mass spectra of standards."}, "[2]": {"test_system": "Paper wasps (mainly Polistes dominulus, plus a few of P. aurifer)", "experiment": "Field trapping, Rescue W•H•Y traps baited with attractant AA/2MB: captures of paper wasps", "assay_type": "in vivo", "conditions": "for Mean/trap/visit ± SE Paper wasps: attractant AA/2MB alone (row AA/2MB) or plus chemical, N 9", "method": "(§1) Eleven field trapping experiments were carried out from late August to mid-October 2009 in residential and woody areas around Spokane, Wash., USA, mostly using the trap known by the designation Rescue® W•H•Y (except on one occasion that Rescue® Reusable Yellowjacket Traps were used for a natural food attractant; see below for details). The commercial W•H•Y trap has a top chamber and a bottom chamber and is described in U.S. Patent Application Publication No. 2009/0151228. The top chamber is baited with two attractants—one of which is a solid contained in a vial (2-methyl-1-butanol), and the other is a liquid mixed with water (acetic acid). The bottom chamber is baited with a liquid attractant (heptyl butyrate) poured onto a cotton pad. Separation of the two types of attractants (otherwise antagonistic to each other when released from the same chamber) in two chambers creates two focal attraction sources from one trap for different species of wasps, hornets, and yellowjackets. […] In a special occasion, the commercial Rescue® Reusable Yellowjacket Traps were each baited with 10 g of chopped bacon (loaded into a cartridge) as a natural protein food attractant. Traps were hung 1.5-2.0 m above the ground on either fences or tree branches ca. 5 m apart between each trap and at least 15 m between sets. For each trapping experiment, three sets of traps (i.e., three physical replicates of each treatment) were deployed with their initial trap positions within each set being randomized. To minimize positional effects and obtain more replications, wasp collections and trap re-randomization were carried out when 5-10 wasps were caught in the best traps. Each replicate lasted several days depending on wasp flight activity. Captured wasps were removed from the traps and kept in the zip-bags before returning to the laboratory for recording of the species, gender status, and catch. Repellent candidates (individuals or mixtures) were released from polyethylene bags (3×5 cm; with a fabric felt) with various thicknesses from 2-12 mil (see release rates listed in tables); they were employed inside the same trap chamber as the attractant.\n(§2) Experiment 1 tested five individual essential oils (pennyroyal, lemongrass, peppermint, clove, and citronella) and two known mosquito repellents (i.e., major components of catnip oil), E/Z-nepetalactone and Z/E-nepetalactone plus a blank control against a mixture of attractant [acetic acid (AA) and 2-methyl-1-butanol (2 MB)] using the W•H•Y traps (both attractant and repellent candidates were released from the top chamber) from for eight consecutive days from August to early September. Experiment 2 tested nine individual essential oils (ylang ylang, vetiver, myrrh, patchouli, geranium, eucalyptus, camphor, spearmint, and wintergreen) plus a blank control against a mixture of attractant (AA+2 MB) using the W•H•Y traps (both attractant and repellent candidates were released from the top chamber) for eight consecutive days from late August to early September. Experiment 3 tested seven individual essential oils (Roman chamomile, sage, fennel seed, rosemary, thyme, anise, and lavender) plus a blank control against a mixture of attractant (AA+2 MB) using the W•H•Y traps (both attractant and repellent candidates were released from the top chamber) for eight consecutive days from late August to early September. Experiment 4 tested two essential oil mixtures (3EO-mix: clove, geranium, and lemongrass in ca. 1:1:1 ratio; and 4EO-mix: clove, geranium, lemongrass, and rosemary in ca. 1:1:1:1 ratio) plus a blank control against a mixture of attractant (AA+2 MB) using the W•H•Y traps (both attractant and repellent candidates were released from the top chamber) for 13 consecutive days in September; the essential oil mixtures alone without attractant were tested in the same experiment."}, "[3]": {"test_system": "Yellowjackets (mainly Vespula pensylvanica (ca. 90%), plus V. vulgaris, V. germanica, and Dolichovespula maculata)", "experiment": "Field trapping, Rescue W•H•Y traps baited with attractant AA/2MB: captures of yellowjackets", "assay_type": "in vivo", "conditions": "for Mean/trap/visit ± SE Yellowjackets: attractant AA/2MB alone (row AA/2MB) or plus chemical, N 9", "method": "as §1, §2"}, "[4]": {"conditions": "V. pensylvanica, D. maculata, P. dominulus, or P. aurifer antennae"}, "[5]": {"conditions": "Table 9, Experiment 10, 18 days end of September through mid-October"}, "[6]": {"conditions": "V. pensylvanica and P. dominulus worker antennae"}, "[7]": {"conditions": "Table 8, Experiment 9, 13 days in September"}, "[8]": {"conditions": "Table 7, Experiment 8, 13 days in September"}}, "data": [{"compound": "CC(C)=CCC/C(C)=C\\C=O", "note": "[Z-citral]", "values": [{"measurement": "antennal (EAD) response to component of lemongrass oil", "setting": "[1]", "value": "strongly responded"}]}, {"compound": "C=C1CC[C@@H]2[C@H]1[C@H]1[C@H](C(C)C)CC[C@]12C", "note": "[β-bourberene]", "values": [{"measurement": "antennal (EAD) response to component of geranium oil", "setting": "[1]; [4]", "value": "significant and consistent EAD-responses"}]}, {"compound": "COC(=O)c1ccccc1O", "note": "[Methyl salicylate, methyl salicylate]", "values": [{"measurement": "Mean/trap/visit ± SE Paper wasps", "setting": "[2]; [5]", "value": "0.9 ± 0.5", "unit": "a wasps/trap/visit"}, {"measurement": "antennal (EAD) response to component of wintergreen oil", "setting": "[1]; V. pensylvanica antennae, FIG. 12", "value": "strong antennal response"}, {"measurement": "Mean/trap/visit ± SE Yellowjackets", "setting": "[3]; [5]", "value": "4.7 ± 2.0", "unit": "ab wasps/trap/visit"}]}, {"compound": "cis/trans-rose oxides", "values": [{"measurement": "antennal (EAD) response to component of geranium oil", "setting": "[1]; [4]", "value": "significant and consistent EAD-responses"}]}, {"compound": "CCCCCC(O)CC", "note": "(stereo not shown) [3-Octanol, 3-octanol]", "values": [{"measurement": "Mean/trap/visit ± SE Paper wasps", "setting": "[2]; [5]", "value": "1.1 ± 0.8", "unit": "a wasps/trap/visit"}, {"measurement": "antennal (EAD) response to component of pennyroyal oil", "setting": "[1]; [4]", "value": "significant and consistent EAD-responses"}, {"measurement": "antennal (EAD) response to component of spearmint oil", "setting": "[1]; [4]", "value": "significant and consistent EAD-responses"}, {"measurement": "Mean/trap/visit ± SE Yellowjackets", "setting": "[3]; [5]", "value": "6.9 ± 2.4", "unit": "ab wasps/trap/visit"}]}, {"compound": "CC(C)=CCC/C(C)=C/C=O", "note": "[E-citral]", "values": [{"measurement": "antennal (EAD) response to component of lemongrass oil", "setting": "[1]", "value": "strongly responded"}]}, {"compound": "Cc1ccc(C(C)C)cc1", "note": "[p-cymene]", "values": [{"measurement": "antennal (EAD) response to component of sage oil", "setting": "[1]; [6]", "value": "strong and repeatable antennal responses"}]}, {"compound": "C=CCc1ccc(O)c(OC)c1", "note": "[Eugenol, eugenol]", "values": [{"measurement": "decrease of trap catches of paper wasps", "setting": "[2]; Experiment 9, AA/2 MB", "value": 58, "unit": "%"}, {"measurement": "Mean/trap/visit ± SE Paper wasps", "setting": "[2]; [7]", "value": "2.0 ± 0.5", "unit": "ab wasps/trap/visit"}, {"measurement": "antennal (EAD) response to component of clove oil", "setting": "[1]; [6]", "value": "strong and repeatable antennal responses"}, {"measurement": "reduction of trap catches of yellowjackets", "setting": "[3]; Experiment 9, AA/2 MB", "value": "> 95", "unit": "%"}, {"measurement": "Mean/trap/visit ± SE Yellowjackets", "setting": "[3]; [7]", "value": "1.7 ± 0.7", "unit": "a wasps/trap/visit"}]}, {"compound": "COC(=O)c1ccccc1", "note": "[Methyl benzoate, methyl benzoate]", "values": [{"measurement": "Mean/trap/visit ± SE Paper wasps", "setting": "[2]; [5]", "value": "1.9 ± 0.8", "unit": "ab wasps/trap/visit"}, {"measurement": "antennal (EAD) response to component of ylang ylang oil", "setting": "[1]; [6]", "value": "strong and repeatable antennal responses"}, {"measurement": "Mean/trap/visit ± SE Yellowjackets", "setting": "[3]; [5]", "value": "5.2 ± 2.2", "unit": "ab wasps/trap/visit"}]}, {"compound": "CCCCCC(=O)CCC", "note": "[4-nonanone]", "values": [{"measurement": "antennal (EAD) response to component of lemongrass oil", "setting": "[1]", "value": "strongly responded"}]}, {"compound": "CC(=O)CCC=C(C)C", "note": "[6-Methyl-5-hepten-2-one, 6-methyl-5-hepten-2-one]", "values": [{"measurement": "Mean/trap/visit ± SE Paper wasps", "setting": "[2]; [8]", "value": "4.8 ± 2.3", "unit": "a wasps/trap/visit"}, {"measurement": "antennal (EAD) response to component of lemongrass oil", "setting": "[1]", "value": "strongly responded"}, {"measurement": "repellency at the doses tested", "setting": "[3]; Experiment 8, AA/2 MB", "value": "not significantly repellent"}, {"measurement": "Mean/trap/visit ± SE Yellowjackets", "setting": "[3]; [8]", "value": "21.9 ± 3.8", "unit": "b wasps/trap/visit"}]}, {"compound": "CC(C)=C1CC[C@@H](C)CC1=O", "note": "[Pulegone, pulegone]", "values": [{"measurement": "Mean/trap/visit ± SE Paper wasps", "setting": "[2]; [5]", "value": "0.2 ± 0.1", "unit": "a wasps/trap/visit"}, {"measurement": "antennal (EAD) response to component of pennyroyal oil", "setting": "[1]; [4]", "value": "significant and consistent EAD-responses"}, {"measurement": "Mean/trap/visit ± SE Yellowjackets", "setting": "[3]; [5]", "value": "6.4 ± 1.8", "unit": "abc wasps/trap/visit"}]}]}
